This note sets out measurements from patent US20260049104A1, “PEPTIDES WITH ANTIMICROBIAL PROPERTIES” (priority 2022, published 2026).

In brackets after ≈: the same amount, converted by molar mass. Where two headings read alike, the source gives them in different places.

Experiment [1] deals with Gram-positive and Gram-negative bacteria. The following applies: panel of E. coli, K. pneumoniae, E. cloacae, A. baumannii, E. faecalis and S. aureus; preliminary screening. Here is the method:
(§1) MIC screening of the peptides against a panel of ATCC and clinical strains was performed using broth microdilution method.^1 Briefly, peptides stock solutions in DMSO (0.1/G TFA) were diluted into Mueller Hinton Broth (MHB), followed by two-fold serial dilution in a 96-well plate. Bacteria culture in mid-log phase was diluted into MHB to yield […] colony-forming units (CFU)/mL. Equal volume of the starting inoculum was added to the peptide samples, then incubated for 18-20 h (37° C., 120 rpm). OD600 of the samples was then measured using Tecan Infinite M200 (TECAN, Männedorf, Switzerland). MIC is defined as the lowest peptide concentration to achieve more than 90% reduction in OD600 relative to the drug-free control. The experiments were repeated three times. Colistin-resistant clinical isolates are a kind gift from Dr. Jeanette Koh (National University Hospital, Singapore). Multidrug-resistant clinical isolates are a kind gift from Dr. Lakshminarayanan Rajamani (Singapore Eye Research Institute, Singapore).
(§2) Kanamycin and ampicillin were used as antibacterial control agents. […] Then, sequential 2-fold serial dilutions of the mix were diluted in 50 μL MH broth and 50 μL cell cultures were added to wells. […] All assays were carried out in triplicate.

The subject of another experiment is Acinetobacter baumannii. Conditions: for MIC: Acinetobacter baumannii ATCC 19606; for MIC value: Table 15, unit inferred. The method, then:
as §1, §2

Another experiment has as its system Staphylococcus aureus. Conditions: Staphylococcus aureus ATCC 29737. Here is the method: as §1, §2
In a further experiment the test system is Klebsiella pneumoniae. Conditions: for MIC: Klebsiella pneumoniae ATCC 700603; for MIC value: Table 15, unit inferred. The method, then:
as §1, §2

The subject of another experiment is Escherichia coli. Conditions: for MIC: Escherichia coli ATCC 25922; for MIC value: Table 15, unit inferred. The method, then:
as §1, §2

A further experiment has as its system Bacillus subtilis. Format: cell-based. The following applies: Bacillus subtilis ATCC 6633. From the text:
(§3) The experiments were repeated three times.

The subject of a further experiment is Pseudomonas aeruginosa. Format: cell-based. Conditions: for MIC: Pseudomonas aeruginosa ATCC 9027; for MIC value: Table 15, unit inferred.
Description: as §3

The next experiment has as its system Morganella morganii. Format: cell-based. Conditions: Morganella morganii ATCC 25830.
Description: as §3

The subject of the next experiment is E. coli M6. Conditions: E. coli M6, compared with xenorceptide A2 (2). The method, then: Resistance development of E. coli M6 against xenorceptide A2 was assessed by serial passaging of the bacteria in broth containing subinhibitory concentrations of the peptide. In brief, bacteria culture at mid-log phase was diluted to 10^5-10^6 CFU/mL in MHB containing 0.25×, 0.5×, 1×, 2×, and 4×MIC of the peptide. […] A new set of peptide concentration range was added to the cultures based on the latest MIC. This process was repeated over 14 days for three independent starting cultures.

In the next experiment the test system is Enterobacter cloacae. The following applies: Table 15, unit inferred. The method, then: as §1, §2
Setting [2] is: Acinetobacter baumanii ACβA1001.
[3] abbreviates: Acinetobacter baumanii ACβA1002.
The mark [4] stands for this setting: Acinetobacter baumanii ACβA1003.
The mark [5] stands for this setting: Acinetobacter baumanii ACβA1004.
Where [6] appears, read: ATCC 25922, printed under Klebsiella pneumoniae.
The mark [7] stands for this setting: Pseudomonas aeruginosa DR4877/07.
[8] abbreviates: Pseudomonas aeruginosa DR5790/07.

As for `C[C@H](NC(=O)[C@H](CC(N)=O)NC(=O)[C@H](C)NC(=O)[C@@H](N)Cc1ccccc1)C(=O)N[C@H](C(=O)N[C@H]1Cc2c[nH]c3cc(ccc23)C(CCCN)[C@@H](C(=O)N[C@@H](CO)C(=O)N[C@@H](Cc2ccccc2)C(=O)O)NC(=O)[C@H](CO)NC1=O)[C@@H](C)O` (stereo partly shown) [Compound 31], the antibacterial activity result in [1] is reported as “no activity”.

Take `CC[C@H](C)[C@H](NC(=O)[C@H](CCCNC(=N)N)NC(=O)[C@H]1NC(=O)[C@H]([C@@H](C)O)NC(=O)[C@@H](NC(=O)[C@H]2NC(=O)[C@H](C)NC(=O)[C@@H](NC(=O)[C@H](C)NC(=O)[C@H]3NC(=O)[C@H]([C@@H](C)CC)NC(=O)[C@@H](N)Cc4c[nH]c5cc(ccc45)[C@@H]3C(N)=O)Cc3ccc(cc3)[C@@H]2C(N)=O)Cc2c[nH]c3cc(ccc23)[C@@H]1CCCN)C(=O)O` [xenorceptide A3]: the MIC in the experiment with Acinetobacter baumannii is above 64 µg/mL; in the experiment with Staphylococcus aureus, above 64 µg/mL; against Klebsiella pneumoniae it was 8 µg/mL (≈ 5.28 µM); in the experiment on Escherichia coli it was 8 µg/mL (≈ 5.28 µM); against Bacillus subtilis it was above 64 µg/mL; with Pseudomonas aeruginosa it was 64 µg/mL (≈ 42.3 µM). For the same compound, the MIC against Morganella morganii worked out at 64 µg/mL (≈ 42.3 µM). In addition, the “MIC (E. coli)” value in the experiment on Escherichia coli (strain not stated, product produced and tested against E. coli) worked out at 8 µg/mL (≈ 5.28 µM).

Regarding colistin [reference compound], the “development of reduced susceptibility in serial passage” value in the experiment on E. coli M6 was “readily became less susceptible”.

Turning to `CC(C)C[C@H](NC(=O)[C@H]1NC(=O)[C@H](Cc2ccccc2)NC(=O)[C@@H](NC(=O)[C@@H](NC(=O)[C@H](CCC(=O)O)NC(=O)[C@H](C)NC(=O)[C@@H](NC(=O)[C@H](CO)NC(=O)[C@H](C)N)[C@@H](C)O)[C@@H](C)O)Cc2c[nH]c3cc(ccc23)C1CCCN)C(=O)N[C@@H](CC(=O)O)C(=O)N[C@H]1Cc2c[nH]c3cc(ccc23)C(CCCN)[C@@H](C(=O)N[C@@H](CO)C(=O)N[C@@H](Cc2ccccc2)C(=O)O)NC(=O)[C@H](CCCCN)NC1=O` (stereo partly shown) [Compound 21], in experiment [1], the antibacterial activity result is “no activity”.

`C[C@H](NC(=O)[C@H]1NC(=O)[C@H](C)NC(=O)[C@@H](N)Cc2ccc(cc2)C1C(N)=O)C(=O)N[C@H](C(=O)N[C@H]1Cc2c[nH]c3cc(ccc23)C(CCCN)[C@@H](C(=O)N[C@@H](CO)C(=O)N[C@@H](Cc2ccccc2)C(=O)O)NC(=O)[C@H](CO)NC1=O)[C@@H](C)O` (stereo partly shown) [Compound 30]: the antibacterial activity result in experiment [1] was “no activity”.

Turning to `CC(C)[C@H](NC(=O)[C@H](Cc1c[nH]c2ccccc12)NC(=O)CNC(=O)[C@H](CCC(=O)O)NC(=O)CNC(=O)[C@@H](N)CCCNC(=N)N)C(=O)N[C@@H](CCCNC(=N)N)C(=O)N[C@@H](C)C(=O)N[C@@H](Cc1ccc(O)cc1)C(=O)N[C@H]1Cc2c[nH]c3cc(ccc23)C(CCCN)[C@@H](C(=O)N[C@@H](CCCNC(=N)N)C(=O)N[C@@H](Cc2ccccc2)C(=O)O)NC(=O)[C@H](C)NC1=O` (stereo partly shown) [Compound 25], the antibacterial activity result in experiment [1] is given as “also active against these test bacteria, but weaker than 24”.

Regarding `CC(C)[C@@H]1NC(=O)[C@@H](N)Cc2c[nH]c3cc(ccc23)C(C(N)=O)[C@@H](C(=O)N[C@@H](C)C(=O)N[C@H]2Cc3cccc(c3)C(CCNC(=N)N)[C@@H](C(=O)N[C@H]3Cc4c[nH]c5cc(ccc45)C(CCCN)[C@@H](C(=O)N[C@@H](CCCNC(=N)N)C(=O)N[C@@H](Cc4ccccc4)C(=O)O)NC(=O)[C@H](CO)NC3=O)NC(=O)[C@H](C)NC2=O)NC1=O` (stereo partly shown) [xenorceptide A12-2], the MIC value stood at 16 µg/mL (≈ 10.2 µM) against Acinetobacter baumannii (setting [2]); 8 µg/mL (≈ 5.12 µM) against Acinetobacter baumannii (setting [3]); 16 µg/mL (≈ 10.2 µM) against Acinetobacter baumannii (setting [4]); 16 µg/mL (≈ 10.2 µM) in the experiment with Acinetobacter baumannii (setting [5]); 2 µg/mL (≈ 1.28 µM) in the experiment with Enterobacter cloacae (Enterobacter cloacae CRE1010); 32 µg/mL (≈ 20.5 µM) with Enterobacter cloacae (Enterobacter cloacae CRE1014). Also, the MIC value with Enterobacter cloacae (Enterobacter cloacae CRE1015) was 16 µg/mL (≈ 10.2 µM); with Enterobacter cloacae (Enterobacter cloacae CRE1016), 16 µg/mL (≈ 10.2 µM); in the experiment with Enterobacter cloacae (Enterobacter cloacae CRE1017), 32 µg/mL (≈ 20.5 µM); with Klebsiella pneumoniae (setting [6]), 1 µg/mL (≈ 0.64 µM); in the experiment with Klebsiella pneumoniae (CRE1006, Klebsiella pneumoniae), 2 µg/mL (≈ 1.28 µM); in the experiment with Klebsiella pneumoniae (Klebsiella pneumoniae CRE 1007), 4 µg/mL (≈ 2.56 µM). Moreover, the MIC value against Klebsiella pneumoniae (Klebsiella pneumoniae CRE1008) was 4 µg/mL (≈ 2.56 µM); with Klebsiella pneumoniae (Klebsiella pneumoniae CRE1011) it was 8 µg/mL (≈ 5.12 µM); in the experiment on Klebsiella pneumoniae (Klebsiella pneumoniae CRE1012) it was 4 µg/mL (≈ 2.56 µM); in the experiment with Escherichia coli (Escherichia coli M2), 4 µg/mL (≈ 2.56 µM); against Escherichia coli (Escherichia coli M6) it was 2 µg/mL (≈ 1.28 µM); in the experiment with Escherichia coli (Escherichia coli M10) it was 2 µg/mL (≈ 1.28 µM). For the same compound, the MIC value against Escherichia coli (Escherichia coli M11) was found to be 4 µg/mL (≈ 2.56 µM); with Pseudomonas aeruginosa (Pseudomonas aeruginosa DM4150R), 32 µg/mL (≈ 20.5 µM); with Pseudomonas aeruginosa (Pseudomonas aeruginosa DM23376) it was 32 µg/mL (≈ 20.5 µM); against Pseudomonas aeruginosa (setting [7]) it was 32 µg/mL (≈ 20.5 µM); against Pseudomonas aeruginosa (setting [8]), 32 µg/mL (≈ 20.5 µM).

For “Xenorceptide B1 (GDRWLKWIKNH; listed as Photorhabdus laumondii)”, the MIC value in the experiment with Acinetobacter baumannii (setting [2]), in the experiment with Acinetobacter baumannii (setting [3]), in the experiment with Acinetobacter baumannii (setting [4]), in the experiment with Acinetobacter baumannii (setting [5]), against Acinetobacter baumannii (Acinetobacter baumanii ATCC 19606) and with Enterobacter cloacae (Enterobacter cloacae ATCC 13047) was above 32 µg/mL in each case. Besides, the MIC value in the experiment on Enterobacter cloacae (Enterobacter cloacae CRE1010), against Enterobacter cloacae (Enterobacter cloacae CRE1014), against Enterobacter cloacae (Enterobacter cloacae CRE1015), with Enterobacter cloacae (Enterobacter cloacae CRE1016), against Enterobacter cloacae (Enterobacter cloacae CRE1017) and in the experiment on Klebsiella pneumoniae (setting [6]) was above 32 µg/mL throughout. Further, the MIC value in the experiment on Klebsiella pneumoniae (CRE1006, Klebsiella pneumoniae) is above 32 µg/mL; with Klebsiella pneumoniae (Klebsiella pneumoniae CRE 1007), above 32 µg/mL; in the experiment on Klebsiella pneumoniae (Klebsiella pneumoniae CRE1008), above 32 µg/mL; with Klebsiella pneumoniae (Klebsiella pneumoniae CRE1011) it was above 32 µg/mL; in the experiment on Klebsiella pneumoniae (Klebsiella pneumoniae CRE1012), above 32 µg/mL; in the experiment on Escherichia coli (Escherichia coli M2), above 32 µg/mL. The MIC value in the experiment with Escherichia coli (Escherichia coli M6), in the experiment with Escherichia coli (Escherichia coli M10), against Escherichia coli (Escherichia coli M11), against Pseudomonas aeruginosa (Pseudomonas aeruginosa DM4150R), against Pseudomonas aeruginosa (Pseudomonas aeruginosa DM23376) and against Pseudomonas aeruginosa (setting [7]) was above 32 µg/mL in each case. Also, in the experiment with Pseudomonas aeruginosa (setting [8]), the MIC value is above 32 µg/mL.

For the compound `CC(C)[C@@H]1NC(=O)[C@@H](N)Cc2c[nH]c3cc(ccc23)C(C(N)=O)[C@@H](C(=O)N[C@@H](C)C(=O)N[C@H]2Cc3ccc(cc3)C(C(N)=O)[C@@H](C(=O)N[C@H]3Cc4c[nH]c5cc(ccc45)C(CCCN)[C@@H](C(=O)N[C@@H](CCCNC(=N)N)C(=O)N[C@@H](Cc4ccccc4)C(=O)O)NC(=O)[C@H]([C@@H](C)O)NC3=O)NC(=O)[C@H](C)NC2=O)NC1=O` (stereo partly shown) [xenorceptide A8], the MIC was above 64 µg/mL against Acinetobacter baumannii; above 64 µg/mL with Staphylococcus aureus; 4 µg/mL (≈ 2.61 µM) in the experiment on Klebsiella pneumoniae; 2 µg/mL (≈ 1.3 µM) against Escherichia coli; 64 µg/mL (≈ 41.7 µM) against Pseudomonas aeruginosa.

As for `CC[C@H](C)[C@H](NC(=O)CNC(=O)[C@H](CC(=O)O)NC(=O)[C@H](CC(=O)O)NC(=O)[C@H](CC(=O)O)NC(=O)[C@H](CO)NC(=O)[C@@H](N)CO)C(=O)N[C@H]1Cc2ccc(cc2)C(CCCN)[C@@H](C(=O)N[C@H](C(=O)N[C@H](C(=O)N[C@H]2Cc3c[nH]c4cc(ccc34)C(CCNC(=N)N)[C@@H](C(=O)N[C@@H](CCCNC(=N)N)C(=O)O)NC(=O)[C@H](CC(=O)O)NC2=O)[C@@H](C)O)[C@@H](C)O)NC(=O)[C@H](Cc2ccccc2)NC1=O` (stereo partly shown) [Compound 22], the antibacterial activity result in experiment [1] was “no activity”.

In general, MIC refers to the lowest concentration found to suppress growth. The low end stands for inhibition by little substance, the high end for a need for much substance.
